{
  "source": "patent US4000310A",
  "about": "“Pharmaceutical compositions containing 6-methyl-3,4-diphenyl-3,4,5,6-tetrahydro-2-pyrone or derivatives thereof” (Union Chimique Continentale-U.C.C, priority 1974, dated 1976)",
  "origin": "cited, not measured here",
  "system": "animals",
  "details": "caffeine, general statement; cited from earlier work",
  "data": [
    {"compound": "Cn1c(=O)c2c(ncn2C)n(C)c1=O", "note": "[caffeine]", "values": [
      {"measurement": "sleep inhibiting effect", "value": "caffeine does"}
    ]}
  ]
}
